According to patent publication US12280212B2, “Method and apparatus for simultaneously administering oxygen, and metered dose inhaler medication by inhalation” (priority 2019, dated 2025):

Assay: MDI inserted through a port into an oxygen mask without extender tube at 2-15 L/min oxygen flow, measured blood levels
Type: in vivo, patient
Settings: 2-15 L/min oxygen flow (wash-out)
Excerpt: The relatively high flow oxygen jet disperses the drug aerosol initially expressed into the mask from the MDI that was inserted into the mask, and as a result, much of the drug is dispersed around the interior of the mask and is washed out of the mask and back out through the MDI housing to ambient by the flow of oxygen, rather than being inhaled by the patient.
In this invention, an extender tube 300 (FIG. 12) is provided that can be inserted into or over the mouthpiece section 230 of an MDI body (FIGS. 8A, 8B, and 9). […] This use of the tube to channel the inhalable medication from an MDI to the mouth of the patient addresses the problem noted above that simply inserting an MDI mouthpiece into a mask with a flow of oxygen causes “wash-out” of the drug, i.e., the drug aerosol or particles (i.e., the discharge from an MDI) are dispersed within the mask and out to ambient, and as a result measured drug levels inhaled by the patient are very low. In the instant invention, measured drug levels of the MDI drug in the lung are high.

- measured blood levels of the albuterol drug: negligible
Compound: CC(C)(C)NCC(O)c1ccc(O)c(CO)c1 (stereo not shown) [albuterol HFA, albuterol]
